Assay results reported in US9365572B2, “PI3K and/or mTOR inhibitor” (XUANZHU PHARMA CO., LTD., priority 2012, dated 2016).
pIC50: −log10 of the molar value.

How the values were obtained:
Estrogen ERα = Estrogen ERα (Homo sapiens (Human), UniProt P03372); experiment: Radioligand binding assay No. 226010; details: test substance 10 μM, read-out: Inhibitory rate (%), Estrogen ERα
Glutamate, NMDA, Glycine = Glutamate, NMDA, Glycine (Rattus norvegicus (Rat), UniProt P35439); experiment: Radioligand binding assay No. 232910; details: test substance 10 μM, read-out: Inhibitory rate (%), Glutamate, NMDA, Glycine
Nicotinic Acetylcholine = experiment: Radioligand binding assay No. 258590; details: test substance 10 μM; Human
Muscarinic M3 = Muscarinic M3 (Homo sapiens (Human), UniProt P20309); experiment: Radioligand binding assay No. 252810; details: test substance 10 μM, read-out: Inhibitory rate (%), Muscarinic M3
Sequence of Muscarinic M3 (P20309 whole entry): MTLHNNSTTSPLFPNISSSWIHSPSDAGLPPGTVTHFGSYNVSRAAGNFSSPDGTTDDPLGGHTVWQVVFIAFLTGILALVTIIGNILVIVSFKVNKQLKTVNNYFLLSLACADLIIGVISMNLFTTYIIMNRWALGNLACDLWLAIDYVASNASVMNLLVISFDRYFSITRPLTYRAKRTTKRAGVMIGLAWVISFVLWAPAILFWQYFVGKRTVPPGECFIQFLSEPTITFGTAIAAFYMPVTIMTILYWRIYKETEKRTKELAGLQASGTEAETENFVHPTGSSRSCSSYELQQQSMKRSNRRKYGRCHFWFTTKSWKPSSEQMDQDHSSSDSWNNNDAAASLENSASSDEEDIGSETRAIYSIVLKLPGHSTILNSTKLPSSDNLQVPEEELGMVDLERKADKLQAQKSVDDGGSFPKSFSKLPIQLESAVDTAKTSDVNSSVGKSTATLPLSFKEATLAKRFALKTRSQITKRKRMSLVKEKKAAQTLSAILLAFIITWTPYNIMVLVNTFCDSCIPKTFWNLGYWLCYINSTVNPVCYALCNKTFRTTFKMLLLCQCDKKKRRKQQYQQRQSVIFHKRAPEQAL

Glucocorticoid = Glucocorticoid (Homo sapiens (Human), UniProt P04150); experiment: Radioligand binding assay No. 232030; details: test substance 10 μM, read-out: Inhibitory rate (%), Glucocorticoid
Sequence of Glucocorticoid (P04150 whole entry): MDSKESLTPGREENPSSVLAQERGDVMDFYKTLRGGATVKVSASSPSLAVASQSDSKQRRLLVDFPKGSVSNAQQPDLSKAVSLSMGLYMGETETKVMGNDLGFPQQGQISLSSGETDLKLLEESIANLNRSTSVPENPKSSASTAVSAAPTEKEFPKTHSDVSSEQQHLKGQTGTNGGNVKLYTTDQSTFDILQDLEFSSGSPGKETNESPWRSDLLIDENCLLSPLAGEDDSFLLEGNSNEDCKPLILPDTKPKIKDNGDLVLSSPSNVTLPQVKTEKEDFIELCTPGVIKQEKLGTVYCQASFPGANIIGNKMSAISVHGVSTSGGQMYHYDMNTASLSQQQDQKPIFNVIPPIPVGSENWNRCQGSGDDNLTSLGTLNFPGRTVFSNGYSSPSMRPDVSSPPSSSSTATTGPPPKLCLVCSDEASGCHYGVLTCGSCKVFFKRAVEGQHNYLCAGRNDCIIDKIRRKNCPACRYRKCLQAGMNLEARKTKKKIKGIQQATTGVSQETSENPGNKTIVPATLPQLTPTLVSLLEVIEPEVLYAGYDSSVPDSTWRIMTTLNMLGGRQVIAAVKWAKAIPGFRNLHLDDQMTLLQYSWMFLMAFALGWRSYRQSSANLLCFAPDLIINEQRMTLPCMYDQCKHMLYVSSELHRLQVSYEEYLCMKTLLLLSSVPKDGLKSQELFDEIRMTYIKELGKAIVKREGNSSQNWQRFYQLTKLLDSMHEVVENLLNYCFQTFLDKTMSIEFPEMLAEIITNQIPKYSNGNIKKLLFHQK

GABAB1A = GABAB1A (Homo sapiens (Human), UniProt Q9UBS5); experiment: Radioligand binding assay No. 228610; details: test substance 10 μM, read-out: Inhibitory rate (%), GABAB1A
Sequence of GABAB1A (Q9UBS5 15-961): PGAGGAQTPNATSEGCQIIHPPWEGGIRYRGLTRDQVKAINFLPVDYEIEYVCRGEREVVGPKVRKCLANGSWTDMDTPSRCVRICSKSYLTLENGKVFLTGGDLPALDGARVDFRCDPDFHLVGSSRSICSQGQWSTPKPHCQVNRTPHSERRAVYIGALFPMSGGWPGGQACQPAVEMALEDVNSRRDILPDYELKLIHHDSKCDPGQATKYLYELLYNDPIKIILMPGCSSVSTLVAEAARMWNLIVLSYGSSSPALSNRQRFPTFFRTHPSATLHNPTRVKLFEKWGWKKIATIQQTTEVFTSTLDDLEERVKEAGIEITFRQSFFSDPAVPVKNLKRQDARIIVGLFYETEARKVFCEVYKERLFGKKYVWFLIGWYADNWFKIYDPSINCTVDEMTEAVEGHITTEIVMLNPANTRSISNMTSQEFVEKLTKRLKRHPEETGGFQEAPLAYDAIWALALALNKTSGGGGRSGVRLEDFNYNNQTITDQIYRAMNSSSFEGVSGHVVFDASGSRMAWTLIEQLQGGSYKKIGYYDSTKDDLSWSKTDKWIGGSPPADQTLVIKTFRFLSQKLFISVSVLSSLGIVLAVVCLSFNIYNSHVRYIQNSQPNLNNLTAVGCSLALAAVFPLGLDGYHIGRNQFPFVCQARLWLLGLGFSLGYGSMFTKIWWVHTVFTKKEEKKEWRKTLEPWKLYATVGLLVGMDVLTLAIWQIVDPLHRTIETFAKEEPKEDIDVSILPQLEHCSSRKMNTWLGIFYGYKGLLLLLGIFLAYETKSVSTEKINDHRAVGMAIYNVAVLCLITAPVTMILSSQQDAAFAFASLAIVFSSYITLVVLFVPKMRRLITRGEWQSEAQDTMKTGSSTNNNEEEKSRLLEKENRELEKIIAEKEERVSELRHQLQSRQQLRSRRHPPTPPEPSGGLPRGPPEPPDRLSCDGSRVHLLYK

[1] = tested on: Glutamate, NMDA, Phencyclidine; experiment: Radioligand binding assay No. 233000; details: test substance 10 μM; rat
PI3Kα = PI3Kα (Homo sapiens (Human), UniProt P42336); experiment: PI3Kα enzymatic assay; format: biochemical; details: read-out: In vitro enzymatic activity (IC50) PI3Kα
Sequence of PI3Kα (P42336 whole entry): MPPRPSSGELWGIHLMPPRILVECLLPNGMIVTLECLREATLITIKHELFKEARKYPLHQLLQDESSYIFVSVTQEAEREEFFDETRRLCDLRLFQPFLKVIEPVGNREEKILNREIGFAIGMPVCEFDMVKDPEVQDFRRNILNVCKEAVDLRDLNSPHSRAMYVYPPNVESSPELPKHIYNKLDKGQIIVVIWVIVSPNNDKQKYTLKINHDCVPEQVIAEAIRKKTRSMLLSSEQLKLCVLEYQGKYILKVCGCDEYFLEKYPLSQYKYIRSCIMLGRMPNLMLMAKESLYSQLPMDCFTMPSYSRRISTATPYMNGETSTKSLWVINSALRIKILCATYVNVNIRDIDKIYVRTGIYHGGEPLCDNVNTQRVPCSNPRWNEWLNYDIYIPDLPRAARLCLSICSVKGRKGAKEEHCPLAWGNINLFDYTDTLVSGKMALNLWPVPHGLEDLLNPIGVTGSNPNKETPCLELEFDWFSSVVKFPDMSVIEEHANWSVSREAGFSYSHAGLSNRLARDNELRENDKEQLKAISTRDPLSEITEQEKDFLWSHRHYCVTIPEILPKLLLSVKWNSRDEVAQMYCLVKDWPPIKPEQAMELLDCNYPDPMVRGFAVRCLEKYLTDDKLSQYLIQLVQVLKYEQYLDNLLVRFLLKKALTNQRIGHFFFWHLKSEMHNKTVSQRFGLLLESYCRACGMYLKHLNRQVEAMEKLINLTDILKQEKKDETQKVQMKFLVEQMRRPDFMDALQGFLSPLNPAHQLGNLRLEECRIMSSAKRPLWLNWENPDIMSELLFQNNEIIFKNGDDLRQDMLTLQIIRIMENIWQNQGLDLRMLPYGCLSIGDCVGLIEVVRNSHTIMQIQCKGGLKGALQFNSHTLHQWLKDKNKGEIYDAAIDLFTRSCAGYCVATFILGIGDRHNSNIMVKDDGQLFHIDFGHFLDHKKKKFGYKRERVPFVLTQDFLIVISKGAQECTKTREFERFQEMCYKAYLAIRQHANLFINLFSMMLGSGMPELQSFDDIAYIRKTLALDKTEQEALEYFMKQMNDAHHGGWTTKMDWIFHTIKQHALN
Sequence of PI3Kα (P27986 whole entry partner): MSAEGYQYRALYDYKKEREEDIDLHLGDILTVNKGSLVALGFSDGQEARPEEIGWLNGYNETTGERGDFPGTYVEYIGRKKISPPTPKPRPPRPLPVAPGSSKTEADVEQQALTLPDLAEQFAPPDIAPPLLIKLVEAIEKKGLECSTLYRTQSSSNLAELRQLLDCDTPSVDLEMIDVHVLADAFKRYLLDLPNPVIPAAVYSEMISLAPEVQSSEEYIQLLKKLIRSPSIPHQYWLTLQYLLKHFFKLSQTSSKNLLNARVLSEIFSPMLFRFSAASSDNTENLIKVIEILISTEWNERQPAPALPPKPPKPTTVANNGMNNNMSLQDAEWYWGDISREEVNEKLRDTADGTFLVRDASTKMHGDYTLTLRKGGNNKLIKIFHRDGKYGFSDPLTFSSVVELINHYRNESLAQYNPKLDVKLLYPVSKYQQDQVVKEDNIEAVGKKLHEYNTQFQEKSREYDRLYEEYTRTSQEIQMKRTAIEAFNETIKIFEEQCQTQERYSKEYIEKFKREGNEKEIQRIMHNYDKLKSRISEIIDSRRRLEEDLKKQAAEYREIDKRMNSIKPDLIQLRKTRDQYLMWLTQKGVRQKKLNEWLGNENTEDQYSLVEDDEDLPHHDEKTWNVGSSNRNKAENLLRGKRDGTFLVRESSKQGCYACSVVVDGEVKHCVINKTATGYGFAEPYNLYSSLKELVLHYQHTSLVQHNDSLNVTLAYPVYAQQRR
Experimental: Assay 1-2: In Vitro Enzymatic Inhibitory Activity of the Present Compound
• 1.1 1-fold kinase buffer: 50 mM HEPES, pH 7.5, 10 mM MgCl2, 1 mM EGTA, 3 mM MnCl2, 0.01% Tween-20, 2 mM DTT; • 1.2 4-fold kinase solution: mTOR kinase was added to 1-fold kinase buffer to form 4-fold kinase solution with a final concentration of 2.5 nM; • 1.3 2-fold substrate and ATP solution: the substrate 4EBP1 and ATP were added to 1-fold kinase buffer to form 2-fold substrate solution with final concentration of 50 nM of 4EBP1 and 10.8 μM of ATP; • 1.4 4-fold test substance solutions: 100-fold test substance solutions in different gradient concentrations were formulated with 100% DMSO, and diluted by 25 folds with 1-fold kinase buffer to form 4-fold test substance solutions in different gradient concentrations. • 1.5 Preparation of detection solution: a detection solution containing 2-fold final concentrations of EDTA and 4EBP1 phosphorylated antibody was formulated, wherein the final concentration for EDTA was 8 mM, and the final concentration for the 4EBP phosphorylated antibody was 2 nM. 2. Procedure • 2.1 To each well of a 384-well plate was added 2.5 μL of the 4-fold test substance solutions in gradient concentrations. The replication was made. • 2.2 To each well was added 2.5 μL of 4-fold kinase solution, and then the plate was incubated for 10 mins; • 2.3 Then to each well was added 5 μL/of 2-fold substrate and ATP solution, and then the plate was incubated at room temperature for 1 hour; • 2.4 Finally, 10 μL of the detection solution was added to terminate the reaction. After 60 mins, the data Lance signal ([…]) was read from Envision. 3 Data treatment Inhibition rate (%)=[…] • wherein: • maximum refers to the reading at the DMSO control well. • minimum refers to the reading at the control well without kinase, • The data was input into Graphpad Prism 5.0 to plot and obtain the curve and IC50 value. PI3Kα Enzymatic Assay 1. […] After 15 mins, the data Lance signal ([…]) was read from Envision. 3 Data treatment Inhibition rate (%)=100−(sample value−minimum)/(maximum−minimum)×100 • wherein: • maximum refers to the reading at the control well without kinase, • minimum refers to the reading at the DMSO control well, • The data was input into Graphpad Prism 5.0 to plot and obtain the curve and IC50 value. […]

Sequence of Estrogen ERα (P03372 whole entry): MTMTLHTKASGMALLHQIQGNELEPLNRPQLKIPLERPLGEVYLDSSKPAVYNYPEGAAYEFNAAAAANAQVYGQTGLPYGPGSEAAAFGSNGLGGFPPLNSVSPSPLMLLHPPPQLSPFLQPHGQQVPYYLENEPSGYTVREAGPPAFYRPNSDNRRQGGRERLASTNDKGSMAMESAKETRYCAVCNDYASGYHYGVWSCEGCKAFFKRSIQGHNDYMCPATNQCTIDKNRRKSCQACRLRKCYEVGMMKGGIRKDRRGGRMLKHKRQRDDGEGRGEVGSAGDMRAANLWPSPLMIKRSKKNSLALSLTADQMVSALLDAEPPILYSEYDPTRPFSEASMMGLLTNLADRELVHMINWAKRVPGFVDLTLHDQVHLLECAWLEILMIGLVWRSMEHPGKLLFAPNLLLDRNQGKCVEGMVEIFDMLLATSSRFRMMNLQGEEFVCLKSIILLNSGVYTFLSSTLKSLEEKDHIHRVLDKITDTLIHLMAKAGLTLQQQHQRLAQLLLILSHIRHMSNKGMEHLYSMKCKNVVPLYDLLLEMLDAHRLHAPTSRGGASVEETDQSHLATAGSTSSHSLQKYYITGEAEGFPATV

pIC50 (PI3Kα) | SMILES | inhibition at 10 µM (Estrogen ERα) | inhibition at 10 µM (Glutamate, NMDA, Glycine) | Inhibitory rate (%), Nicotinic Acetylcholine (Nicotinic Acetylcholine) | inhibition at 10 µM (Muscarinic M3) | inhibition at 10 µM (Glucocorticoid) | inhibition at 10 µM (GABAB1A) | Inhibitory rate (%), Glutamate, NMDA, Phencyclidine [1]
 | Nc1ccc(-c2ccc3ncc4c(=O)[nH]c(=O)n(-c5cccc(C(F)(F)F)c5)c4c3n2)cn1 [Compound 5, 9-(6-aminopyridin-3-yl)-1-(3-(trifluoromethyl)phenyl)pyrimido[5,4-c][1,5]naphthyridine-2,4(1H,3H)-dione] | 17% | 29% | 7% | 13% | -4% | 15% | 8%
7.82 | O=c1[nH]c(=O)n(-c2cccc(C(F)(F)F)c2)c2c1cnc1ccc(-c3cnc4[nH]ccc4c3)nc12 [Compound 30, 9-(1H-pyrrolo[2,3-b]pyridin-5-yl)-1-(3-(trifluoromethyl)phenyl)pyrimido[5,4-c][1,5]naphthyridine-2,4(1H,3H)-dione] |  |  |  |  |  |  | 
